Patent US20050148631A1, “Amino heterocyclyl inhibitors of 11-beta-hydroxy steroid dehydrogenase type 1” (AGOURON PHARMACEUTICALS, INC., priority 2003, published 2005)
Where two headings read alike, the source gives them in different places.

What was measured:
11β-hsd-1 enzyme [1] = target: T1, 11β-hsd-1 enzyme (Homo sapiens, UniProt P28845); assay: 11β-hsd-1 enzyme assay, Kiapp determination (3H-cortisone to cortisol, radio-HPLC); type: biochemical; conditions: read-out: Ki app
11β-hsd-1 enzyme [2] = target: T1, 11β-hsd-1 enzyme; assay: 11β-hsd-1 enzyme assay, percentage of inhibition (3H-cortisone to cortisol, radio-HPLC); type: biochemical
[3] = compound at 0.1 uM, read-out: % inh @ 0.1 uM
[4] = 0.1 uM, read-out: % inh @ 0.1 uM

T1 sequence (P28845 whole entry, species assumed): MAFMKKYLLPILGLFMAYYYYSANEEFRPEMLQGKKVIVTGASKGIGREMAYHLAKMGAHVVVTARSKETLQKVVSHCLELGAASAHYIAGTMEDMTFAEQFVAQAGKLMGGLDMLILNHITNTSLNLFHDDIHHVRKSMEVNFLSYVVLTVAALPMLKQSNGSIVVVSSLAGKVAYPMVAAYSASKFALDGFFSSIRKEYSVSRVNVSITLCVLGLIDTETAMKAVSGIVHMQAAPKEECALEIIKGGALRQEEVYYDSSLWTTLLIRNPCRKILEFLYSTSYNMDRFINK

Row | Compound | Ki (11β-hsd-1 enzyme [1]; apparent Ki, 11β-hsd-1 enzyme) | inhibition at 0.1 µM (11β-hsd-1 enzyme [2]; [3]) | Ki (11β-hsd-1 enzyme [1]) | inhibition at 0.1 µM (11β-hsd-1 enzyme [2]; [4]) | also measured
1 | Cc1cccc(NS(=O)(=O)c2cccc(Cl)c2C)n1 [Example 34] |  |  | 0.169 µM | 48.8% | 
2 | COc1ccc(-c2ccc(S(=O)(=O)Nc3cccc(C)n3)c(C)c2)cc1OC [Example 182] |  |  | 0.023 µM | 79% | 
3 | Cc1cccc(NS(=O)(=O)c2ccc(-c3ccccc3C#N)cc2C)n1 [Example 195] |  |  | 0.017 µM | 82% | 
4 | CCc1cccc(NS(=O)(=O)c2sc(-c3ccc(C#N)cc3)nc2C)n1 [Example 119] |  |  | 0.0031 µM | 95% | 
5 | N#Cc1ccc(-c2ccc(S(=O)(=O)Nc3ccc4ccccc4n3)cc2)cc1 [Example 87] |  |  | 0.0036 µM | 100% | 
6 | Cc1cccc(NS(=O)(=O)c2ccc(-c3ccc(Cl)c(Cl)c3)cc2C)n1 [Example 176] |  |  | 0.0052 µM | 100% | 
7 | Cc1cc(C)nc(NS(=O)(=O)c2ccc(-c3ccccc3)cc2)c1 [Example 65] |  |  | 0.0183 µM | 59.4% | 
8 | Cc1cccc(NS(=O)(=O)c2cccc(Cl)c2C)n1 [Example 38] |  |  | 0.169 µM |  | % inh @ 0.1 uM (11β-hsd-1 enzyme [2]; 0.1 uM): 49%
9 | Cc1cccc(NS(=O)(=O)c2ccc(-c3cccc(Cl)c3)cc2C)n1 [Example 163] |  |  | 0.008 µM | 97% | 
10 | Nc1cccc(NS(=O)(=O)c2ccc(-c3ccccc3)cc2)n1 [Example 40] |  |  | 0.0043 µM | 98% | 
11 | Cc1cccc(NS(=O)(=O)c2sc(-c3ccc(C#N)cc3)nc2C)n1 [Example 118, 2-(4-Cyano-phenyl)-4-methyl-thiazole-5-sulfonic acid (6-methyl-pyridin-2-yl)-amide] |  |  | 0.0025 µM | 100% | 
12 | Cc1cccc(NS(=O)(=O)c2ccc(-c3ccccc3Cl)cc2C)n1 [Example 164] |  |  | 0.013 µM | 93% | 
13 | Cc1ccc(-c2ccc(S(=O)(=O)Nc3cccc(C)n3)c(C)c2)cc1 [Example 171] |  |  | 0.0069 µM | 93% | 
14 | CCc1cccc(NS(=O)(=O)c2sc(-c3ccccc3)nc2C)n1 [Example 104] |  |  | 0.023 µM | 89.6% | 
15 | COc1ccc(-c2ccc(S(=O)(=O)Nc3cccc(C)n3)c(C)c2)cc1 [Example 169] |  |  | 0.019 µM | 93% | 
16 | Cc1cccc(NS(=O)(=O)c2sc3ccc(C#N)cc3c2C)n1 [Example 91] |  |  | 0.0023 µM | 100% | 
17 | Cc1cccc(NS(=O)(=O)c2ccc(-c3cccc(C(C)C)c3)cc2C)n1 [Example 193] |  |  | 0.039 µM | 78% | 
18 | CCc1ccc(-c2ccc(S(=O)(=O)Nc3cccc(C)n3)c(C)c2)cc1 [Example 191] |  |  | 0.011 µM | 100% | 

Row | Compound | Ki (11β-hsd-1 enzyme [1]; apparent Ki, 11β-hsd-1 enzyme) | inhibition at 0.1 µM (11β-hsd-1 enzyme [2]; [3]) | Ki (11β-hsd-1 enzyme [1]) | inhibition at 0.1 µM (11β-hsd-1 enzyme [2]; [4]) | also measured
19 | Cc1cccc(NS(=O)(=O)c2ccc(-c3ccc(F)c(F)c3)cc2C)n1 [Example 208] | 0.0067 µM | 95% |  |  | 
20 | Cc1cccc(NS(=O)(=O)c2ccc(C(C)C)cc2)n1 [Example 70] |  |  | 0.216 µM | 78.7% | 
21 | Nc1cccc(NS(=O)(=O)c2ccc(-c3ccc(C(F)(F)F)cc3)cc2)n1 [Example 95] |  |  | 0.0044 µM | 100% | 
22 | Cc1cccc(NS(=O)(=O)c2sc3ccc(Cl)cc3c2C)n1 [Example 46] |  |  | 0.0032 µM | 98% | 
23 | Cc1cccc(NS(=O)(=O)c2ccc(-c3ccc(C#N)cc3)cc2)n1 [Example 33, 4′-Cyano-biphenyl-4-sulfonic acid (6-methyl-pyridin-2-yl)-amide] |  |  | 0.0064 µM | 97% | 
24 | CCOc1cccc(-c2ccc(S(=O)(=O)Nc3cccc(C)n3)c(C)c2)c1 [Example 165] |  |  | 0.043 µM | 71% | 
25 | Nc1cccc(NS(=O)(=O)c2ccc(-c3ccc(F)cc3)cc2)n1 [Example 43] |  |  | 0.0081 µM | 98% | 
26 | CCOC(=O)Cc1cccc(NS(=O)(=O)c2sc3ccc(Cl)cc3c2C)n1 [Example 6] |  |  | 0.0028 µM | 100% | 
27 | COc1cccc(-c2ccc(S(=O)(=O)Nc3cccc(C)n3)c(C)c2)c1 [Example 162] |  |  | 0.021 µM | 89% | 
28 | Cc1cccc(NS(=O)(=O)c2ccc(-c3ccc(S(C)(=O)=O)cc3)cc2C)n1 [Example 200] | 0.021 µM | 88% |  |  | 
29 | CCN(CC)C(=O)Cc1cccc(NS(=O)(=O)c2sc3ccc(Cl)cc3c2C)n1 [Example 19, 2-[6-(5-Chloro-3-methyl-benzo[b]thiophene-2-sulfonylamino)-pyridin-2-yl]-N,N-diethyl-acetamide] |  |  | 0.0048 µM | 96.9% | 
30 | Cc1cccc(NS(=O)(=O)c2ccc3ccc(Cl)cc3c2)n1 [Example 93] |  |  | 0.0423 µM | 70% | 
31 | Cc1cccc(NS(=O)(=O)c2ccc(-c3ccc4c(c3)OCCO4)cc2C)n1 [Example 206] | 0.02 µM | 87% |  |  | 
32 | Cc1cccc(NS(=O)(=O)/C=C/c2ccccc2)n1 [Example 109] |  |  | 0.27 µM | 57.2% | 
33 | Cc1cccc(NS(=O)(=O)c2ccc(-c3cccc(Cl)c3Cl)cc2C)n1 [Example 196] |  |  | 0.0071 µM | 90% | 
34 | Cc1cccc(NS(=O)(=O)c2ccc(-c3ccc(Cl)cc3Cl)cc2C)n1 [Example 167] |  |  | 0.036 µM | 100% | 
35 | Cc1cccc(NS(=O)(=O)c2ccc(-c3cc(F)cc(F)c3)cc2C)n1 [Example 178] |  |  | 0.0082 µM | 95% | 

Now from value to compound, other results behind:

Row | Ki (11β-hsd-1 enzyme [1]; apparent Ki, 11β-hsd-1 enzyme) | inhibition at 0.1 µM (11β-hsd-1 enzyme [2]; [3]) | Ki (11β-hsd-1 enzyme [1]) | inhibition at 0.1 µM (11β-hsd-1 enzyme [2]; [4]) | Compound | also measured
36 | 0.015 µM | 91% |  |  | Cc1cccc(NS(=O)(=O)c2ccc(-c3ccc(F)cc3)c(C)c2)n1 [Example 280] | 
37 | 0.02 µM | 87.7% |  |  | Cc1cccc(NS(=O)(=O)c2ccc(-c3ccc(C(F)(F)F)cn3)cc2)n1 [Example 271] | 
38 | 0.0074 µM | 100% |  |  | Cc1cccc(NS(=O)(=O)N2CCC(c3ccccc3)CC2)n1 [Example 306] | 
39 | 0.027 µM | 82% |  |  | Cc1cccc(NS(=O)(=O)c2ccc(-c3cccc(F)c3F)c(C)c2)n1 [Example 238] | 
40 | 0.049 µM | 72.4% |  |  | Cc1cc(-c2ccc(S(=O)(=O)Nc3ccc4ccccc4n3)cn2)ccc1F [Example 292] | 
41 | 0.0029 µM | 100% |  |  | Cc1cccc(NS(=O)(=O)c2ccc(-c3ccc(C#N)cc3)c(C(F)(F)F)c2)n1 [Example 285, 4′-Cyano-2-trifluoromethyl-biphenyl-4-sulfonic acid (6-methyl-pyridin-2-yl)-amide] | 
42 | < 0.001 µM | 100% |  |  | N#Cc1ccc(C2CCN(S(=O)(=O)Nc3cccc(N)n3)CC2)cc1 [Example 317, 4-(4-Cyano-phenyl)-piperidine-1-sulfonic acid (6-amino-pyridin-2-yl)-amide] | 
43 | 0.011 µM | 91% |  |  | N#Cc1ccc(-c2ccc(S(=O)(=O)Nc3ccc4ccccc4n3)cc2)nc1 [Example 288] | 
44 | 0.01 µM | 90% |  |  | Cc1cccc(NS(=O)(=O)c2ccc(-c3cc(Cl)cc(Cl)c3)c(C)c2)n1 [Example 222] | 
45 | 0.068 µM | 73.9% |  |  | N#Cc1ccc(-c2ccc(S(=O)(=O)Nc3ccc4ccccc4n3)cc2)cn1 [Example 289] | 
46 | 0.016 µM | 28% |  |  | Cc1cccc(NS(=O)(=O)c2ccc(-c3cc(F)cc(F)c3)c(C)c2)n1 [Example 225] | 
47 | 0.0334 µM | 79.3% |  |  | Cc1cccc(NS(=O)(=O)c2ccc(-c3ccc(F)cc3C)cc2)n1 [Example 253] | 
48 | 0.0053 µM | 95.5% |  |  | Cc1cccc(NS(=O)(=O)c2ccc(-c3ccc(C#N)c(C)c3)cc2)n1 [Example 273] | 
49 | 0.023 µM | 81% |  |  | Cc1cccc(NS(=O)(=O)c2ccc(-c3ccc4c(c3)CCO4)cc2C)n1 [Example 211] | 
50 | 0.036 µM | 72% |  |  | Cc1cccc(NS(=O)(=O)c2ccc(-c3ccccc3)c(C)c2)n1 [Example 214] | 
51 | 0.0057 µM | 100% |  |  | Cc1cccc(NS(=O)(=O)c2ccc(-c3ccc(C#N)cc3)cc2F)n1 [Example 283, 4′-Cyano-3-fluoro-biphenyl-4-sulfonic acid (6-methyl-pyridin-2-yl)-amide] | 
52 | 0.02 µM | 79.6% |  |  | Cc1cc(C)nc(NS(=O)(=O)N2CCc3ccccc3C2)c1 [Example 304] | 
53 | 0.029 µM | 74% |  |  | Cc1cccc(NS(=O)(=O)c2ccc(-c3cc(F)c(F)c(F)c3)c(C)c2)n1 [Example 228] | 
54 | 0.017 µM | 68% |  |  | Cc1cccc(NS(=O)(=O)c2ccc(-c3ccc(F)c(Cl)c3)c(C)c2)n1 [Example 219] | 
55 | 0.0107 µM | 94.8% |  |  | COc1cc(-c2ccc(S(=O)(=O)Nc3cccc(C)n3)cc2)ccc1C#N [Example 270, 4′-Cyano-3′-methoxy-biphenyl-4-sulfonic acid (6-methyl-pyridin-2-yl)-amide] | 
56 | 0.018 µM | 87% |  |  | Cc1cccc(NS(=O)(=O)c2ccc(-c3ccc(Cl)cc3Cl)c(C)c2)n1 [Example 221] | 
57 | 0.016 µM | 90% |  |  | Cc1ccc(-c2ccc(S(=O)(=O)Nc3cccc(C)n3)cc2C)cc1 [Example 215] | 
58 | 0.025 µM | 86.1% |  |  | O=S(=O)(Nc1ccc2ccccc2n1)N1CCc2conc2CC1 [Example 315] | 
59 | 0.0049 µM | 100% |  |  | Cc1cccc(NS(=O)(=O)N2CCC(c3ccc(F)cc3)CC2)n1 [Example 301] | 
60 | 0.012 µM | 100% |  |  | Cc1cccc(NS(=O)(=O)c2ccc(-c3ccc(C#N)cc3C(F)(F)F)cc2)n1 [Example 272] | 
61 | 0.029 µM | 83.6% |  |  | Cc1cccc(NS(=O)(=O)c2ccc(-c3ccc(N4CCOCC4)cc3)cc2)n1 [Example 251] | 
62 | 0.018 µM |  |  |  | Cc1cccc(NS(=O)(=O)N2CCC(c3ccc(C#N)cc3)CC2)n1 [Example 310] | inhibition at 0.1 µM (11β-hsd-1 enzyme [2]; read-out: % inh @ 0.1 uM, compound at 0.1 uM): 100%
63 | 0.11 µM | 81% |  |  | Cc1cccc(NS(=O)(=O)c2ccc(-c3cccc(C(C)C)c3)c(C)c2)n1 [Example 236] | 
